From patent publication US20240166643A1, “IMIDAZO[1,2-A]PYRIDINE COMPOUNDS AND THEIR USE IN THERAPY” (Imperial College Innovations Limited, priority 2020, published 2024)

Tests used:
[1] = target: Plasmodium vivax (Pv) NMT (Plasmodium vivax (strain Salvador I), UniProt A5K1A2); test: biochemical
[2] = test system: Plasmodium falciparum 3D7; test: SYBR Green assay, Plasmodium falciparum strain 3D7; format: cell-based; settings: P. falciparum strain 3D7, 96 h incubation, read-out: Pf EC50 strain 3D7
Method: Assay (g): SYBR Green Assay
EC50 values for Plasmodium falciparum (Pf) NMT strain 3D7 or NF54 were measured for certain compounds of the invention using an assay utilising SYBR Green dye. The assay for NMT strain 3D7 was carried out as follows:
Synchronous Plasmodium falciparum 3D7 late stage trophozoites at 33-36 h were used. Final parasitemia and haematocrit were between 0.1-0.2% and 2% respectively. Red blood cells used for the assay were centrifuged to remove the buffy coat and washed twice in Roswell Park Memorial Institute (RPMI) Media 1640 so that no white blood cells were present. The culture medium contained RPMI 1640 with 5 g/L Albumax, 0.025 g/L gentamycin and 0.292 g/L L-glutamine.
Sterile 96 well black tissue culture plates (Costar) were used routinely for every assay. […] Chloroquine was used as a standard with ten times reduced concentrations range as above. Two sets of control were used in duplicate wells, one set with no added compound of the invention or standard (positive control) and one with uninfected red blood cells (negative control).
The plates were incubated at 37° C. for 48 h in a gas chamber flushed with 5% CO2, 5% O2 and 90% N2. After 48 h supernatants were taken out from each well and replaced with fresh drug and incubated for a further 48 h in the same manner. At the end of the 96 h incubation, 25 μL of SYBR Green I dye (SYBR Green I nucleic acid gel stain 10,000×, in DMSO from Invitrogen) in lysis buffer (1 μL dye to 1 mL lysis buffer) was added to each well and stored overnight at −20° C. The lysis buffer contained Tris (20 mM, pH 8.0), EDTA (2 mM), Saponin (0.16%) and Triton X-100 (1.6% v/v).
Plates were warmed to room temperature and fluorescence intensity was measured with a FLUOstar Omega Microplate fluorescence reader (BMG Labtech). Values were expressed in relative fluorescence units. Binding of SYBR Green is specific for parasite DNA as mature erythrocytes lack DNA and RNA. Fluorescence intensity unit was converted to percentage (%) of growth as follows:
% growth=(culture under drug)−(uninfected RBC)/(culture with no drug)−(uninfected RBC)×100
and the EC50 value was determined.

Human NMT1 (HsNMT1) = Human NMT1 (HsNMT1) (Homo sapiens, UniProt P30419); test: biochemical
SU-DHL-10 cells = test: Cell cytotoxicity in SU-DHL-10 cell line (CellTiter-Glo); format: cell-based; settings: Homo sapiens, SU-DHL10; CellTiter-Glo, 48 h; read-out: SU-DHL-10 EC50
Method: Assay (c): Cell Cytotoxicity in SU-DHL-10 Cell Line
Cell Culture: SU-DHL-10 (ATCC CRL-2963) were cultured in RPMI-media (ATCC, 30-2001).
Cultures were maintained by the addition of fresh medium and inoculum of 8.0×10^4 to 2.0×10^5 cells/mL. Subculturing was done when the cell density was between 1.0×10^6 and 2.0×10^6 cells/mL.
Cell seeding: 5000 cells/well were plated in 384-white clear bottom plates (Greiner, 781098) for the assay in 20 μl growth media.
Top dose: 1 mM stocks of each compound was prepared in 100% DMSO and thereafter diluted 333.33 fold in growth media to obtain 3 μM (0.3% DMSO) mid stock of each compound, from which 10 μl was added to assay wells (with 20 μl cells) for a final concentration of 1 μM (0.1% DMSO). For subsequent dose-response: 1 mM stock was diluted 3 fold in DMSO before subjecting to above dilution pattern to obtain final 0.1% DMSO concentration.
Treatment: Cells were incubated with the compounds for 48 h at 37° C. in presence of 5% CO2.
Assay Procedure: The assay plate and its contents were equilibrated at room temperature for approximately 30 minutes. CellTiter-Glo® Reagent was added equal to the volume (1;1) of cell culture medium present in each well. The contents were mixed for 5 minutes on an orbital shaker to induce cell lysis. The plate was allowed to incubate at room temperature for 10 minutes to stabilize luminescent signal. The luminescence was recorded with an integration time of 0.25 seconds in EnVision 2104 Multilabel Plate Reader (Perkin Elmer).
Calculation: % Cytotoxicity was calculated considering 100% cell death in wells treated with 0.1% TritonX.

Chain of Human NMT1 (HsNMT1) (P30419 whole entry, looked up): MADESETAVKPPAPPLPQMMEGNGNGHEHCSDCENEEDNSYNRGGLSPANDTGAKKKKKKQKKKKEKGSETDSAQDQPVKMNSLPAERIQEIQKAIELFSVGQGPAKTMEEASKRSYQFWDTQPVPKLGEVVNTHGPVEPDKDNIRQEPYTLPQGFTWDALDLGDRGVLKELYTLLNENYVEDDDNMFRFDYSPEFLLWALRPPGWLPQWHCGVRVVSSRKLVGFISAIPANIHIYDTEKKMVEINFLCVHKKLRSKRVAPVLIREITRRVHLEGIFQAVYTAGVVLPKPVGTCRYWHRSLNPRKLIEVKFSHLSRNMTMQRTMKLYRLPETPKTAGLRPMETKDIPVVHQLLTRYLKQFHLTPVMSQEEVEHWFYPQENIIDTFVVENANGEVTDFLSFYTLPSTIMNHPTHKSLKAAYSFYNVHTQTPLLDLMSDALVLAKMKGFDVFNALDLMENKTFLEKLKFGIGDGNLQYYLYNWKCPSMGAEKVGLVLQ
Chain of Plasmodium vivax (Pv) NMT (A5K1A2 1-410): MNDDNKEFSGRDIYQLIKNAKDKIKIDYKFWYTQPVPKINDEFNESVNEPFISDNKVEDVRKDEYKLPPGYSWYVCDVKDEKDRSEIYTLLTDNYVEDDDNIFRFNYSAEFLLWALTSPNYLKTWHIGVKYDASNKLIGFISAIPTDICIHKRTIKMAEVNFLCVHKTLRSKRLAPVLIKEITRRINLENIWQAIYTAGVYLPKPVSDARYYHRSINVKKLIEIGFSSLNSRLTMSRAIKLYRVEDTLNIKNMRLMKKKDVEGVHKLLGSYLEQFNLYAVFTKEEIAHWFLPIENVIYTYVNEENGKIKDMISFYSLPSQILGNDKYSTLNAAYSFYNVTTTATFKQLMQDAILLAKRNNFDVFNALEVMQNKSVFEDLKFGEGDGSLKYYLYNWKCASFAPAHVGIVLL

Compound | IC50 [1] | EC50 [2] | IC50 (Human NMT1 (HsNMT1)) | EC50 (SU-DHL-10 cells)
O=C(NCc1cnc2ccccn12)C1CN(c2nc(N3CCCNCC3)ncc2Cl)C1 [Example 5] | 0.014 µM | 2.5 µM | – | –
O=C(NCc1cnc2cc(F)ccn12)C1CN(c2nc(N3CCCNCC3)ncc2Cl)C1 [Example 21] | 0.017 µM | 0.8 µM | 0.05 µM | –
CC1CN(c2ncc(Cl)c(N3CC(C(=O)NCc4cnc5ccccn45)C3)n2)CCN1 (centres unmarked) [Example 29] | 0.018 µM | 0.62 µM | 0.079 µM | –
CC(NC(=O)C1CN(c2nc(N3CCNCC3)ncc2Cl)C1)c1cnc2ccccn12 (centres unmarked) [Example 30] | 0.0085 µM | 0.96 µM | 0.026 µM | –
CC(C)(NC(=O)C1CN(c2nc(N3CCNCC3)ncc2F)C1)c1cnc2ccccn12 [Example 32] | 0.0091 µM | 0.064 µM | – | –
COc1cnc(N2CCNCC2)nc1N1CC(C(=O)NC(C)(C)c2cnc3ccccn23)C1 [Example 34] | 0.0091 µM | 0.14 µM | – | –
C[C@H]1CN(c2ncc(Cl)c(N3CC(C(=O)NC(C)(C)c4cnc5ccccn45)C3)n2)CCN1 [Example 37] | 0.0084 µM | 0.027 µM | 0.0079 µM | –
C[C@H]1CN(c2ncc(F)c(N3CC(C(=O)NC(C)(C)c4cnc5ccccn45)C3)n2)CCN1 [Example 38] | 0.014 µM | 0.15 µM | – | –
CN(c1ncc(F)c(N2CC(C(=O)NC(C)(C)c3cnc4ccccn34)C2)n1)C1CCNC1 (centres unmarked) [Example 40] | 0.018 µM | 0.25 µM | 0.16 µM | –
CC1CN(c2ncc(F)c(N3CC(C(=O)NC(C)(C)c4cnc5ccccn45)C3)n2)C[C@@H](C)N1 (some centres unmarked) [Example 47] | 0.0122 µM | 0.14 µM | 0.043 µM | –
CC1CN(c2ncc(F)c(N3CC(C(=O)NC(C)(C)c4cnc5ccccn45)C3)n2)C[C@H](C)N1 (some centres unmarked) [Example 49] | 0.0084 µM | 0.057 µM | 0.014 µM | –
CN1CCC(N(C)c2ncc(F)c(N3CC(C(=O)NC(C)(C)c4cnc5ccccn45)C3)n2)C1 (centres unmarked) [Example 58] | 0.013 µM | 0.41 µM | 0.037 µM | –
COc1cnc(N2CCCN(C)CC2)nc1N1CC(C(=O)NC(C)(C)c2cnc3ccccn23)C1 [Example 62] | 0.006 µM | 0.011 µM | 0.005 µM | –
COc1cnc(N2CCN(C)CC2)nc1N1CC(C(=O)NC(C)(C)c2cnc3ccccn23)C1 [Example 63] | 0.071 µM | 0.18 µM | – | –
CN1CCN(c2ncc(F)c(N3CCC(C(=O)NC(C)(C)c4cnc5ccccn45)C3)n2)CC1 (centres unmarked) [Example 64] | 0.02 µM | 0.85 µM | 0.19 µM | –
C[C@@H]1CN(C)CCN1c1ncc(Cl)c(N2CC(C(=O)NC(C)(C)c3cnc4ccccn34)C2)n1 [Example 68] | 0.032 µM | 0.074 µM | 0.088 µM | –

Compound | IC50 [1] | EC50 [2] | IC50 (Human NMT1 (HsNMT1)) | EC50 (SU-DHL-10 cells)
C[C@H]1CN(c2ncc(F)c(N3CC(C(=O)NC(C)(C)c4cnc5ccccn45)C3)n2)CCN1C [Example 82, 1-{2-[(3S)-3,4-dimethylpiperazin-1-yl]-5-fluoropyrimidin-4-yl}-N-(2-{imidazo[1,2-a]pyridin-3-yl}propan-2-yl)azetidine-3-carboxamide] | 0.043 µM | 0.094 µM | 0.1 µM | –
C[C@H]1CN(c2ncc(Cl)c(N3CC(C(=O)NC(C)(C)c4cnc5ccccn45)C3)n2)CCN1C [Example 83, 1-{5-chloro-2-[(3S)-3,4-dimethylpiperazin-1-yl]pyrimidin-4-yl}-N-(2-{imidazo[1,2-a]pyridin-3-yl}propan-2-yl)azetidine-3-carboxamide] | 0.01 µM | 0.15 µM | – | –
C[C@@H]1CN(c2ncc(F)c(N3CCC(C(=O)NC(C)(C)c4cnc5ccccn45)C3)n2)CCN1C (stereo partly drawn) [Example 86, 1-{2-[(3R)-3,4-dimethylpiperazin-1-yl}-5-fluoropyrimidin-4-yl}-N-(2-{imidazo[1,2-a]pyridin-3-yl}propan-2-yl)pyrrolidine-3-carboxamide] | 0.007 µM | 0.2 µM | 0.039 µM | –
C[C@@H]1CN(c2ncc(F)c(N3CC(C)(C(=O)NC(C)(C)c4cnc5ccccn45)C3)n2)CCN1C [Example 87, 1-{2-[(3R)-3,4-dimethylpiperazin-1-yl]-5-fluoropyrimidin-4-yl}-N-(2-{imidazo[1,2-a]pyridin-3-yl}propan-2-yl)-3-methylazetidine-3-carboxamide] | 0.038 µM | > 0.76 µM | 0.15 µM | –
C[C@@H]1CN(c2ncc(Cl)c(N3CC(C(=O)NC(C)(C)c4cnc5ccccn45)C3)n2)C[C@@H](C)N1C [Example 92, 1-{5-chloro-2-[(3R,5R)-3,4,5-trimethylpiperazin-1-yl]pyrimidin-4-yl}-N-(2-{imidazo[1,2-a]pyridin-3-yl}propan-2-yl)azetidine-3-carboxamide] | 0.041 µM | 0.26 µM | 0.055 µM | –
C[C@@H]1CN(c2ncc(F)c(N3CC(C(=O)NC(C)(C)c4cnc5ccccn45)C3)n2)C[C@@H](C)N1C [Example 93, 1-{5-fluoro-2-[(3R,5R)-3,4,5-trimethylpiperazin-1-yl]pyrimidin-4-yl}-N-(2-{imidazo[1,2-a]pyridin-3-yl}propan-2-yl)azetidine-3-carboxamide] | 0.059 µM | 0.86 µM | 0.25 µM | –
Cc1ccc2ncc(C(C)(C)NC(=O)C3CN(c4nc(N5CCN(C)[C@H](C)C5)ncc4F)C3)n2c1 [Example 97, 1-{2-[(3R)-3,4-dimethylpiperazin-1-yl}-5-fluoropyrimidin-4-yl}-N-(2-{6-methylimidazo[1,2-a]pyridin-3-yl}propan-2-yl)azetidine-3-carboxamide] | 0.0049 µM | 0.069 µM | 0.0257 µM | –
Cc1ccc2ncc(C(C)(C)NC(=O)C3CN(c4nc(N5CCN(C)[C@H](C)C5)ncc4Cl)C3)n2c1 [Example 98, 1-{5-chloro-2-[(3R)-3,4-dimethylpiperazin-1-yl]pyrimidin-4-yl}-N-(2-{6-methylimidazo[1,2-a]pyridin-3-yl}propan-2-yl)azetidine-3-carboxamide] | 0.0058 µM | 0.007 µM | 0.0054 µM | –
C[C@@H]1CN(c2ncc(Cl)c(N3CC(C(=O)NC(C)(C)c4cnc5ccccn45)C3)n2)[C@@H](C)CN1C [Example 109, 1-{5-chloro-2-[(2S,5R)-2,4,5-trimethylpiperazin-1-yl]pyrimidin-4-yl}-N-(2-{imidazo[1,2-a]pyridin-3-yl}propan-2-yl)azetidine-3-carboxamide] | – | 0.12 µM | – | –
C[C@@H]1CN(c2ncc(Cl)c(N3CC(C(=O)NC(C)(C)c4cnc5ccccn45)C3)n2)[C@H](C)CN1C [Example 110, 1-{5-chloro-2-[(2R,5R)-2,4,5-trimethylpiperazin-1-yl]pyrimidin-4-yl}-N-(2-{imidazo[1,2-a]pyridin-3-yl}propan-2-yl)azetidine-3-carboxamide] | – | 0.066 µM | – | –
C[C@@H]1CN(c2ncc(F)c(N3CC(C(=O)NC(C)(C)c4cnc5ccccn45)C3)n2)[C@@H](C)CN1C [Example 111, 1-{5-fluoro-2-[(2S,5R)-2,4,5-trimethylpiperazin-1-yl]pyrimidin-4-yl}-N-(2-{imidazo[1,2-a]pyridin-3-yl}propan-2-yl)azetidine-3-carboxamide] | – | 0.45 µM | – | –
CN1CCCN(c2nc3c(c(N4CC(C(=O)NC(C)(C)c5cnc6ccccn56)C4)n2)CCC3)CC1 [Example 114, N-(2-(imidazo[1,2-a]pyridin-3-yl)propan-2-yl)-1-(2-(4-methyl-1,4-diazepan-1-yl)-6,7-dihydro-5H-cyclopenta[d]pyrimidin-4-yl)azetidine-3-carboxamide] | – | – | – | 0.065 µM
Cc1nc(N2CCCN(C)CC2)nc(N2CC(C(=O)NC(C)(C)c3cnc4ccccn34)C2)c1Cl [Example 115, 1-(5-chloro-6-methyl-2-(4-methyl-1,4-diazepan-1-yl)pyrimidin-4-yl)-N-(2-(imidazo[1,2-a]pyridin-3-yl)propan-2-yl)azetidine-3-carboxamide] | – | – | – | 0.054 µM
CN(C(=O)C1CN(c2nc(N3CCNCC3)ncc2Cl)C1)C(C)(C)c1cnc2ccccn12 [Example 119, 1-(5-chloro-2-(piperazin-1-yl)pyrimidin-4-yl)-N-(2-(imidazo[1,2-a]pyridin-3-yl)propan-2-yl)-N-methylazetidine-3-carboxamide] | – | – | – | 0.925 µM
CN(C(=O)C1CN(c2nc(N3CCCNCC3)ncc2Cl)C1)C(C)(C)c1cnc2ccccn12 [Example 120, 1-(5-chloro-2-(1,4-diazepan-1-yl)pyrimidin-4-yl)-N-(2-(Imidazo[1,2-a]pyridin-3-yl)propan-2-yl)-N-methylazetidine-3-carboxamide] | – | – | – | 0.545 µM
C[C@@H]1CN(c2ncc(Cl)c(N3CC(C(=O)N(C)C(C)(C)c4cnc5ccccn45)C3)n2)CCN1 [Example 124, (R)-1-(5-chloro-2-(3-methylpiperazin-1-yl)pyrimidin-4-yl)-N-(2-(Imidazo[1,2-a]pyridin-3-yl)propan-2-yl)-N-methylazetidine-3-carboxamide] | – | – | – | 0.448 µM
